# Test results reported in PubChem BioAssay (NCI).
#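 Following 48 hours of exposure in 96-well plates, responses at five concentrations were used to interpolate endpoints linearly. Here, GI50 denotes the concentration required for 50% inhibition of growth. TGI: total growth inhibition.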
# Experiments:
# Assay in all cases: NCI anticancer screen, dose series, 48 h
# UACC-62 melanoma = system: UACC-62 melanoma
# MDA-MB-231 breast = system: MDA-MB-231 breast
# HT29 colon = system: HT29 colon
# OVCAR-3 ovarian = system: OVCAR-3 ovarian
# SR leukemia = system: SR leukemia
# SNB-19 CNS = system: SNB-19 CNS
# MCF7 breast = system: MCF7 breast
# OVCAR-5 ovarian = system: OVCAR-5 ovarian
# SW-620 colon = system: SW-620 colon
# SF-295 CNS = system: SF-295 CNS
# SK-MEL-28 melanoma = system: SK-MEL-28 melanoma
# NCI-H226 lung = system: NCI-H226 lung
# MDA-MB-435 = system: MDA-MB-435
# HCC-2998 colon = system: HCC-2998 colon
# A549 NSCLC = system: A549 NSCLC
# HCT-116 colon = system: HCT-116 colon
# TK-10 renal = system: TK-10 renal
# HS 578T breast = system: HS 578T breast
# EKVX NSCLC = system: EKVX NSCLC
# A498 renal = system: A498 renal
# OVCAR-4 ovarian = system: OVCAR-4 ovarian
# SNB-75 CNS = system: SNB-75 CNS
# CCRF-CEM leukemia = system: CCRF-CEM leukemia
# RPMI-8226 leukemia = system: RPMI-8226 leukemia
# SK-MEL-5 melanoma = system: SK-MEL-5 melanoma
# HL-60(TB) leukemia = system: HL-60(TB) leukemia
# PC-3 prostate = system: PC-3 prostate
# ACHN renal = system: ACHN renal
# HOP-62 NSCLC = system: HOP-62 NSCLC
# M14 melanoma = system: M14 melanoma
# COLO 205 colon = system: COLO 205 colon
# NCI-H460 lung = system: NCI-H460 lung
# MOLT-4 leukemia = system: MOLT-4 leukemia
# NCI-H23 lung = system: NCI-H23 lung
# SN12C renal = system: SN12C renal
# LOX IMVI melanoma = system: LOX IMVI melanoma
# UACC-257 melanoma = system: UACC-257 melanoma
# SK-OV-3 ovarian = system: SK-OV-3 ovarian
# SK-MEL-2 melanoma = system: SK-MEL-2 melanoma
# UO-31 renal = system: UO-31 renal
# HOP-92 NSCLC = system: HOP-92 NSCLC
# CAKI-1 renal = system: CAKI-1 renal
# BT-549 breast = system: BT-549 breast
# DU-145 prostate = system: DU-145 prostate
# U251 CNS = system: U251 CNS
# RXF 393 renal = system: RXF 393 renal
# SF-539 CNS = system: SF-539 CNS
# SF-268 CNS = system: SF-268 CNS
# K-562 leukemia = system: K-562 leukemia
# HCT-15 colon = system: HCT-15 colon
# 786-0 renal = system: 786-0 renal
# KM12 colon = system: KM12 colon
# T-47D breast = system: T-47D breast
# IGROV1 ovarian = system: IGROV1 ovarian
# NCI/ADR-RES ovarian = system: NCI/ADR-RES ovarian
# OVCAR-8 ovarian = system: OVCAR-8 ovarian
# NCI-H522 lung = system: NCI-H522 lung
structure (smiles),measurement,setting,value
Cc1ccc(-c2c3c(nn2-c2ccc(S(=O)(=O)NC(=O)Nc4ccccc4)cc2)-c2ccccc2C3)cc1,GI50,UACC-62 melanoma,12.8 µM
same,TGI,UACC-62 melanoma,27.4 µM
same,GI50,MDA-MB-231 breast,17.5 µM
same,TGI,MDA-MB-231 breast,55 µM
same,GI50,HT29 colon,35.7 µM
same,TGI,HT29 colon,> 100 µM
same,GI50,OVCAR-3 ovarian,32.9 µM
same,TGI,OVCAR-3 ovarian,> 100 µM
same,GI50,SR leukemia,2260 nM
same,TGI,SR leukemia,6.92 µM
same,GI50,SNB-19 CNS,30 µM
same,TGI,SNB-19 CNS,> 100 µM
same,GI50,MCF7 breast,20.5 µM
same,TGI,MCF7 breast,> 100 µM
same,GI50,OVCAR-5 ovarian,30.1 µM
same,TGI,OVCAR-5 ovarian,97.2 µM
same,GI50,SW-620 colon,12 µM
same,TGI,SW-620 colon,> 100 µM
same,GI50,SF-295 CNS,34.5 µM
same,TGI,SF-295 CNS,> 100 µM
same,GI50,SK-MEL-28 melanoma,21.2 µM
same,TGI,SK-MEL-28 melanoma,46.9 µM
same,GI50,NCI-H226 lung,15.4 µM
same,TGI,NCI-H226 lung,56 µM
same,GI50,MDA-MB-435,28.1 µM
same,TGI,MDA-MB-435,> 100 µM
same,GI50,HCC-2998 colon,13.6 µM
same,TGI,HCC-2998 colon,37.9 µM
same,GI50,A549 NSCLC,28 µM
same,TGI,A549 NSCLC,> 100 µM
same,GI50,HCT-116 colon,19.2 µM
same,TGI,HCT-116 colon,> 100 µM
same,GI50,TK-10 renal,10.3 µM
same,TGI,TK-10 renal,24.8 µM
same,GI50,HS 578T breast,24.1 µM
same,TGI,HS 578T breast,73.9 µM
same,GI50,EKVX NSCLC,18.1 µM
same,TGI,EKVX NSCLC,43.8 µM
same,GI50,A498 renal,19.6 µM
same,TGI,A498 renal,36.6 µM
same,GI50,OVCAR-4 ovarian,19.7 µM
same,TGI,OVCAR-4 ovarian,51.5 µM
same,GI50,SNB-75 CNS,22.9 µM
same,TGI,SNB-75 CNS,66.3 µM
same,GI50,CCRF-CEM leukemia,2130 nM
same,TGI,CCRF-CEM leukemia,> 100 µM
same,GI50,RPMI-8226 leukemia,7.22 µM
same,TGI,RPMI-8226 leukemia,69.3 µM
same,GI50,SK-MEL-5 melanoma,15.1 µM
same,TGI,SK-MEL-5 melanoma,36.5 µM
same,GI50,HL-60(TB) leukemia,24.2 µM
same,TGI,HL-60(TB) leukemia,83.7 µM
same,GI50,PC-3 prostate,16 µM
same,TGI,PC-3 prostate,38 µM
same,GI50,ACHN renal,14.6 µM
same,TGI,ACHN renal,30.5 µM
same,GI50,HOP-62 NSCLC,32 µM
same,TGI,HOP-62 NSCLC,> 100 µM
same,GI50,M14 melanoma,24.6 µM
same,TGI,M14 melanoma,87.2 µM
same,GI50,COLO 205 colon,19.5 µM
same,TGI,COLO 205 colon,45.9 µM
same,GI50,NCI-H460 lung,19.3 µM
same,TGI,NCI-H460 lung,70.2 µM
same,GI50,MOLT-4 leukemia,5.14 µM
same,TGI,MOLT-4 leukemia,> 100 µM
same,GI50,NCI-H23 lung,15 µM
same,TGI,NCI-H23 lung,37.6 µM
same,GI50,SN12C renal,16.9 µM
same,TGI,SN12C renal,35.8 µM
same,GI50,LOX IMVI melanoma,12.3 µM
same,TGI,LOX IMVI melanoma,> 100 µM
same,GI50,UACC-257 melanoma,18.7 µM
same,TGI,UACC-257 melanoma,39.9 µM
same,GI50,SK-OV-3 ovarian,18.2 µM
same,TGI,SK-OV-3 ovarian,48.1 µM
same,GI50,SK-MEL-2 melanoma,16.1 µM
same,TGI,SK-MEL-2 melanoma,32.5 µM
same,GI50,UO-31 renal,8.78 µM
same,TGI,UO-31 renal,24.3 µM
same,GI50,HOP-92 NSCLC,18.1 µM
same,TGI,HOP-92 NSCLC,44.9 µM
same,GI50,CAKI-1 renal,15.4 µM
same,TGI,CAKI-1 renal,45.5 µM
same,GI50,BT-549 breast,18.8 µM
same,TGI,BT-549 breast,44.2 µM
same,GI50,DU-145 prostate,15.3 µM
same,TGI,DU-145 prostate,33.9 µM
same,GI50,U251 CNS,17.5 µM
same,TGI,U251 CNS,37.6 µM
same,GI50,RXF 393 renal,17.9 µM
same,TGI,RXF 393 renal,43.1 µM
same,GI50,SF-539 CNS,18.2 µM
same,TGI,SF-539 CNS,38.9 µM
same,GI50,SF-268 CNS,19.1 µM
same,TGI,SF-268 CNS,55.7 µM
same,GI50,K-562 leukemia,11.1 µM
same,TGI,K-562 leukemia,> 100 µM
same,GI50,HCT-15 colon,15.5 µM
same,TGI,HCT-15 colon,52.2 µM
same,GI50,786-0 renal,22.7 µM
same,TGI,786-0 renal,> 100 µM
same,GI50,KM12 colon,18 µM
same,TGI,KM12 colon,51.2 µM
same,GI50,T-47D breast,30.7 µM
same,TGI,T-47D breast,> 100 µM
same,GI50,IGROV1 ovarian,3.67 µM
same,TGI,IGROV1 ovarian,16.5 µM
same,GI50,NCI/ADR-RES ovarian,23.1 µM
same,TGI,NCI/ADR-RES ovarian,75.5 µM
same,GI50,OVCAR-8 ovarian,19.1 µM
same,TGI,OVCAR-8 ovarian,52.9 µM
same,GI50,NCI-H522 lung,11.7 µM
same,TGI,NCI-H522 lung,30.5 µM
